Results reported in article PMC11784145, “Efficacy and in vitro pharmacological assessment of novel N-hydroxypyridinediones as hepatitis B virus ribonuclease H inhibitors” (Antimicrobial Agents and Chemotherapy, 2024).

How the values were obtained:
[1] = test system: MDCK-MDR1 cells; experiment: MDCK-MDR1 permeability assay; type: in vitro ADME; details: MDCK-MDR1 cells, 10 µM compound, 2 h; actively effluxed if >2
Experimental: MDCK-MDR1 cells were seeded on 96-well, high protein binding immobilon-P membrane plates (Millipore Sigma) at 2.4 × 10^4 cells per well for 4 days. Media were then decanted, and the cells were equilibrated with Hanks balanced salt solution (HBSS) supplemented with 10 mM CaCl2 and 1 mM MgCl2 for 1 h. Compound (10 µM) was then added to the apical side to assess active transport and to the basolateral side to assess active efflux. The cells were incubated with compound for 2 h with shaking at 37°C. Samples (50 µL) were retrieved from the recipient wells and mixed with 150 µL acetonitrile (ACN) and internal standard (1:1 of 200 ng/mL chloridazon:enalapril). Samples were pelleted at 4,000 × g and the supernatant was analyzed by liquid-chromatography/tandem mass spectrometry (LCMS/MS) analyses. […]. Active efflux was determined by Papp B/A/Papp A/B.
Tight junction formation was assessed by lucifer yellow permeation immediately following sample retrieval. Briefly, lucifer yellow (10 µM) was added to the apical wells and HBSS was added to the basolateral wells for 1 h with shaking at 37°C, after which sample was collected from the basolateral side and read on a Biotek Synergy HTX multi-mode plate reader with 485/20 excitation and 520/20 emission filters defined by the Center Wavelength/band-pass values. The percent lucifer yellow fluorescence was determined by subtracting the HBSS relative fluorescent units (RFU) from the sample RFU and normalizing to the lucifer yellow positive control RFU. Lucifer yellow permeation was determined to be acceptable if ≤3%.

[2] = Microsome stability; type: in vitro ADME, human; details: human, microsomes
Experimental: Human liver microsomes (gender pooled, 50 individuals) were purchased from BioIVT and stored at −80°C until use. […] Reactions were initiated by addition of 1.2 mM NADPH. […] Microsomal proteins were pelleted at 4,000 × g and the supernatant was analyzed via LCMS/MS. […] The ln percent remaining values were plotted against time, the negative slope was taken (k), and compound half-life (t1/2) was determined using ln2/k. Intrinsic clearance (Clint [µL/min/mg]) was calculated by (V × ln2)/t1/2, where V is the incubation volume (µL) divided by the protein concentration in the reaction (mg) ([31]).

[3] = Solubility limit, turbidimetric assay; type: physicochemical; details: upper limit 200 µM
Experimental: Solubility limits were determined by a turbidimetric assay, as described ([27]), with the solubility limit being defined as the compound concentration where light scattering began to rise. Two or more replicate assays were performed for each compound at each pH on different days.

[4] = test system: HepDES19 cells; details: read-out: HepDES19 CC50; 72 h, MTS; highest concentration tested 100 µM; mean ± SD
[5] = biological target: T1, human ribonuclease H1 (huRNase H1) (Homo sapiens, UniProt O60930); experiment: Human RNase H1 inhibition, fluorescent biochemical assay
T1 construct: made in house; host or cells: Escherichia coli
T1 sequence (O60930 1-286): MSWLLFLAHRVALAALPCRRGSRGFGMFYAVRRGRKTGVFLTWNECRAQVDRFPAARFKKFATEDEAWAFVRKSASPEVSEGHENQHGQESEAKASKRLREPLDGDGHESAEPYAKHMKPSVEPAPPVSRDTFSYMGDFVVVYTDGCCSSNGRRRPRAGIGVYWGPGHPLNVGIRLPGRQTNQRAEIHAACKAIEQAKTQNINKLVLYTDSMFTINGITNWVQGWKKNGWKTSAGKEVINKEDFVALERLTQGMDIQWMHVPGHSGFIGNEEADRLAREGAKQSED
Experimental: Recombinant human ribonuclease H1 (huRNase H1) was expressed in Escherichia coli and purified by nickel affinity chromatography, as described previously ([30]). […] The heteroduplex substrate was prepared, as described by Ponzar et al. ([30]). Reactions were initiated by the addition of MgCl2 (5 mM final) and were performed on a Biotek Synergy HTX multi-mode plate reader at 28°C.
Maximum rates of fluorescence increase were calculated using the Biotek Gen5 v3.15 software and percentage activity was determined for each compound concentration by subtracting rates from no enzyme reactions and normalizing to DMSO reactions. […] Reactions were performed at least three times on separate days.

[6] = Parallel artificial membrane permeability assay (PAMPA); type: in vitro ADME; details: for Papp 4 (PAMPA): pH 7.4, replicate 4
Experimental: Compound Papp values were determined by normalizing the experimental compound absorbance to the compounds’ absorbances at equilibrium, membrane porosity, buffer volume, and time (s). Two or more replicate assays were obtained on separate days for each pH.

[7] = test system: HBV replication (HBV plus-polarity DNA strand); experiment: HBV replication inhibition, strand preferential qPCR in hepDES19 cells; type: cell-based, hepatitis B virus; details: for EC50: 72 h exposure, HBV plus-polarity strand suppression, highest concentration tested 100 µM, mean ± SD, read-out: HepDES19 EC50
Experimental: HBV replication inhibition was measured in hepDES19 cells following 72 h compound exposure without compound replenishment. EC50 values were determined by HBV plus-polarity strand suppression using a strand preferential qPCR assay, as described previously ([28]). Three or more replicate values were obtained on different days.

[8] = pH 5 (fed simulated intestinal fluid)
[9] = pH 6.5 (fasted simulated intestinal fluid)

Row | SMILES | Average Sol (solubility limit) [3, 8] | Sol 1 (solubility limit) ([3]; pH 5, replicate 1) | Sol 2 (solubility limit) ([3]; pH 5, replicate 2) | Average Sol (solubility limit) [3, 9] | Sol 1 (solubility limit) ([3]; pH 6.5, replicate 1) | Sol 2 (solubility limit) ([3]; pH 6.5, replicate 2) | Average Sol (solubility limit) ([3]; pH 7.4 (DMEM-F12 with 10% FBS)) | Sol 1 (solubility limit) ([3]; pH 7.4, replicate 1) | Sol 2 (solubility limit) ([3]; pH 7.4, replicate 2) | CC50 [4] | Avg Papp (PAMPA) ([6]; FeSSIF pH 5) | Interpretation (PAMPA Papp) ([6]; FeSSIF pH 5) | Papp 1 (PAMPA) ([6]; FeSSIF pH 5, replicate 1) | Papp 2 (PAMPA) ([6]; FeSSIF pH 5, replicate 2) | Avg Papp (PAMPA) ([6]; pH 7.4) | Interpretation (PAMPA Papp) ([6]; pH 7.4) | Papp 1 (PAMPA) ([6]; pH 7.4, replicate 1) | Papp 2 (PAMPA) ([6]; pH 7.4, replicate 2) | Papp 3 (PAMPA) ([6]; pH 7.4, replicate 3) | HepDES19 SI (CC50/EC50) [7] | also measured
1 | CC(=NOCc1ccc(F)cc1F)c1c(C)cc(=O)n(O)c1O [Compound 1464] | > 200 µM | > 200 µM | > 200 µM | > 200 µM | > 200 µM | > 200 µM | > 200 µM | > 200 µM | > 200 µM | 63600 ± 27000 nM | 36.2 ×10⁻⁶ cm/s | H (H: Papp > 1*10-6) | 14.4 ×10⁻⁶ cm/s | 50.1 ×10⁻⁶ cm/s | 2.49 ×10⁻⁶ cm/s | H (H: Papp > 1*10-6) | 2.62 ×10⁻⁶ cm/s | 2.31 ×10⁻⁶ cm/s | 2.3 ×10⁻⁶ cm/s | 281 | Efflux Ratio (Papp B-A/A-B) [1]: 1.04; Half-life [2]: >30 min; Sol 3 (solubility limit) ([3]; pH 5, replicate 3): > 200 µM; Selectivity of HBV replication inhibition over huRNase H1 (huRNase H1 IC50 versus HBV EC50) [5]: at least 10 fold; Papp 3 (PAMPA) ([6]; FeSSIF pH 5, replicate 3): 44.2 ×10⁻⁶ cm/s; Papp 4 (PAMPA) [6]: 2.73 ×10⁻⁶ cm/s; EC50 [7]: 188 ± 63 nM
2 | CC(=NOCc1ccc(Cl)cc1)c1c(C)cc(=O)n(O)c1O [Compound 1466] | > 200 µM | > 200 µM | > 200 µM | > 200 µM | > 200 µM | > 200 µM | > 200 µM | > 200 µM | > 200 µM | 46600 ± 13600 nM | 20.4 ×10⁻⁶ cm/s | H (H: Papp > 1*10-6) | 23.2 ×10⁻⁶ cm/s | 17.6 ×10⁻⁶ cm/s | 1.69 ×10⁻⁶ cm/s | H (H: Papp > 1*10-6) | 0.299 ×10⁻⁶ cm/s | 2.48 ×10⁻⁶ cm/s | 2.29 ×10⁻⁶ cm/s | 130 | Half-life [2]: >30 min; Selectivity of HBV replication inhibition over huRNase H1 (huRNase H1 IC50 versus HBV EC50) [5]: at least 10 fold; EC50 [7]: 359 ± 240 nM
3 | CC(=NOCc1ccc(C)cc1)c1c(C)cc(=O)n(O)c1O [Compound 1462] | > 200 µM | > 200 µM | > 200 µM | > 200 µM | > 200 µM | > 200 µM | > 200 µM | > 200 µM | > 200 µM | 33100 ± 5240 nM | 10.1 ×10⁻⁶ cm/s | H (H: Papp > 1*10-6) | 14.7 ×10⁻⁶ cm/s | 5.56 ×10⁻⁶ cm/s | 1.44 ×10⁻⁶ cm/s | H (H: Papp > 1*10-6) | 0.513 ×10⁻⁶ cm/s | 0.971 ×10⁻⁶ cm/s | 2.84 ×10⁻⁶ cm/s | 112 | Efflux Ratio (Papp B-A/A-B) [1]: 1.31; Clearance (intrinsic clearance, Clint) [2]: 34.8 µL/min/mg; Half-life [2]: >30 min; Selectivity of HBV replication inhibition over huRNase H1 (huRNase H1 IC50 versus HBV EC50) [5]: at least 10 fold; EC50 [7]: 295 ± 122 nM
4 | CC(=NOCc1cc(F)ccc1F)c1c(C)cc(=O)n(O)c1O [Compound 1810] | 167 µM | 100 µM | > 200 µM | 100 µM | 100 µM | 100 µM | 167 µM | > 200 µM | 100 µM | > 100000 nM | 20.7 ×10⁻⁶ cm/s | H (H: Papp > 1*10-6) | 17.2 ×10⁻⁶ cm/s | 24.2 ×10⁻⁶ cm/s | 3.23 ×10⁻⁶ cm/s | H (H: Papp > 1*10-6) | 1.13 ×10⁻⁶ cm/s | 2.26 ×10⁻⁶ cm/s | 7.59 ×10⁻⁶ cm/s | 54.0 | Sol 3 (solubility limit) ([3]; pH 5, replicate 3): > 200 µM; Sol 3 (solubility limit) ([3]; pH 7.4, replicate 3): > 200 µM; IC50 ([5]; recombinant huRNase H1, RNA:DNA heteroduplex substrate): 820 nM; Papp 4 (PAMPA) [6]: 1.29 ×10⁻⁶ cm/s; Papp 5 (PAMPA) ([6]; pH 7.4, replicate 5): 3.89 ×10⁻⁶ cm/s; EC50 [7]: 1850 ± 758 nM
